This is an account of results in ChEMBL document CHEMBL1157022, “Synthesis, cytotoxicity and DNA-binding of novel bisnaphthalimidopropyl derivatives in breast cancer MDA-MB-231 cells” (Eur J Med Chem, 2010).

Data set [1] deals with Nucleic Acid. Kind of data set: Binding affinity to calf thymus DNA assessed as temperature required to cause 50% of DNA denatured at 10 uM by thermal denaturation assay. Format: nucleic-acid assay. The following applies: Bos taurus.
Data set [2] relates to Nucleic Acid. Put plainly: Displacement of ethidium bromide from calf thymus DNA assessed as decrease of fluorescence of bound ethidium bromide by fluorometric assay. Format: nucleic-acid assay. The following applies: Bos taurus.
Data set [3] concerns MCF7. Kind of data set: Cytotoxicity against human MCF7 cells after 48 hrs. Format: functional, cell-based. The following applies: MCF7, 48 h.
Data set [4] relates to MDA-MB-231. Kind of data set: Cytotoxicity against human MDA-MB-231 cells after 24 hrs by MTT assay. Format: functional, cell-based. The following applies: MDA-MB-231, 24 h. (In general: Tetrazolium assays rely on reduction of a dye to a coloured formazan, in cell work by metabolically active cells.)
Data set [5] has as its system MDA-MB-231. Put plainly: Cytotoxicity against human MDA-MB-231 cells after 48 hrs by MTT assay. The following applies: MDA-MB-231, 48 h. Format: functional, cell-based.
A short description of data set [6]: Cytotoxicity against human MCF10A cells after 24 hrs by MTT assay. Format: cell-based. The note with it: MCF-10A.
Data set [7] is described as follows: Cytotoxicity against human MCF10A cells after 48 hrs by MTT assay. Format: cell-based. The note with it: MCF-10A.
Data set [8] has as its system CHO. Put plainly: Cytotoxicity against CHO cells expressing MGBG polyamine transporter after 48 hrs by MTT assay. The following applies: Cricetulus griseus. Format: ADME, cell-based.
Data set [9] concerns CHO-MG. Put plainly: Cytotoxicity against MGBG polyamine transporter deficient CHO-MG cells after 48 hrs by MTT assay. Format: ADME, cell-based. The following applies: Cricetulus griseus.
Data set [10] relates to MGBG polyamine transporter. Put plainly: Ratio of IC50 for MGBG polyamine transporter deficient CHO-MG cells to IC50 for CHO cells expressing MGBG polyamine transporter. Format: cell-based, Cricetulus griseus. The note with it: chinese hamster; read-out: Ratio IC50.
In data set [11] the test system is MDA-MB-231. Put plainly: Drug uptake in human MDA-MB-231 cells at 10 uM after 6 hrs by fluorescence microscopic analysis. Format: ADME, cell-based. The following applies: mda-mb-231, 6 h.
The test system of data set [12] is MDA-MB-231. Put plainly: Drug uptake in human MDA-MB-231 cells at 10 uM after 0.5 hrs by fluorescence microscopic analysis. Format: ADME, cell-based. The following applies: mda-mb-231, 0.5 h.

Structures are written as SMILES. Some results are limits rather than exact numbers.

Take `Br.O=C1c2cccc3cccc(c23)C(=O)N1CCCNCCCCNCCCNCCCN1C(=O)c2cccc3cccc(c23)C1=O` [BISNAPHTHALIMIDOPROPYL SPERMIDINE TRIHYDROBROMIDE]: the Tm (in general, the temperature at which the thermal transition is half complete) in data set [1] is 91.5 °C. The C50 in [2] is 1.4 µM. Further, the concentration for half-maximal inhibition (IC50) (commonly the concentration that inhibits the measured activity by half) was 1.38 µM in data set [3]; 12.7 µM in data set [4]; 4.59 µM in [5]; 4.19 µM in data set [6]; 3.97 µM in data set [7]; 76.5 µM in [8]. The molecule further yielded an IC50 in [9] of 74.6 µM. In addition, the selectivity ratio in [10] is 1. In addition, the Drug uptake entry in data set [11] is “Active”.
For `O=C1c2cccc3cccc(c23)C(=O)N1CCCNCCCCNCCCN1C(=O)c2cccc3cccc(c23)C1=O`, in data set [1], the midpoint of thermal melting (Tm) came to 89.2 °C. The C50 in data set [2] amounted to 1.5 µM. The IC50 in data set [4] amounted to 7.86 µM; in data set [5], 5.12 µM; in [6], 8.1 µM; in data set [7], 5.67 µM.
Take `O=C1c2cccc3cccc(c23)C(=O)N1CCCNC1CCCC(CC2CCCC(NCCCN3C(=O)c4cccc5cccc(c45)C3=O)C2)C1` (configuration not stated): in data set [1], the Tm came to 87.4 °C. Further, the C50 in data set [2] was 3.8 µM. Besides, the IC50 in data set [4] came to 6.84 µM; in data set [5], 6.06 µM; in [6], 6.06 µM; in data set [7], 5.71 µM; in [8], 6.2 µM; in [9] it was 6.3 µM. Moreover, the selectivity ratio in data set [10] was found to be 1.
On to `O=C1c2c(O)ccc(O)c2C(=O)c2c(NCCNCCO)ccc(NCCNCCO)c21`, for which the Tm in data set [1] turned out to be 91 °C.
For `O=C1c2cccc3cccc(c23)C(=O)N1CCCNCCCNCCCCNCCCNCCCN1C(=O)c2cccc3cccc(c23)C1=O`, in data set [3], the IC50 amounted to 1.38 µM. In other words, the single-digit micromolar range.
Take `Br.O=C1c2cccc3cccc(c23)C(=O)N1CCCNCCCCCCCCNCCCN1C(=O)c2cccc3cccc(c23)C1=O`: the Tm in data set [1] is 88.7 °C. Also, the C50 in [2] is 1.7 µM. The IC50 in data set [4] worked out at 4.99 µM; in [5], 2.68 µM; in data set [6], 2.77 µM; in data set [7], 0.87 µM; in data set [8], 5.8 µM; in data set [9], 5.1 µM. Besides, the selectivity ratio in data set [10] was determined as 0.9. In addition, the Drug uptake entry in data set [12] is recorded as “Active”.
Consider `O=C1c2cccc3cccc(c23)C(=O)N1CCCNCCCCCCCCCCNCCCN1C(=O)c2cccc3cccc(c23)C1=O` [BNIPDADEC], for which the Tm in data set [1] came to 84.4 °C. Also, the C50 in data set [2] was determined as 1.8 µM. Further, the IC50 stood at 4.85 µM in data set [4], 3.32 µM in [5], 2.77 µM in data set [6] and 2.82 µM in data set [7].
On to `CC(/C=N/NC(=N)N)=N\NC(=N)N` [MITOGUAZONE], for which the half-inhibitory concentration (IC50) in data set [8] was 3.3 µM; in data set [9], above 100 µM. For the same molecule, in data set [10], the selectivity ratio is above 30.2.
Consider `NCCCN1C(=O)c2cccc3cccc(c23)C1=O` [NAPHTHALIMIDOPROPYLAMINE], for which, in [1], the melting temperature (Tm) turned out to be 66.3 °C. For the same molecule, the C50 in data set [2] was above 10 µM. The IC50 in [4], in [5], in [6] and in data set [7] was above 40 µM throughout.
Regarding `CN1CCN(c2ccc3[nH]c(-c4ccc5[nH]c(-c6ccc(O)cc6)nc5c4)nc3c2)CC1`, the Tm in data set [1] worked out at 78.8 °C.
As for `O=C1c2cccc3cccc(c23)C(=O)N1CCCNCCCCCCCCCCCCNCCCN1C(=O)c2cccc3cccc(c23)C1=O`, the Tm in data set [1] is 81.2 °C. The C50 in data set [2] was 3.4 µM. In addition, the IC50 in [4] came to 5.11 µM; in [5], 6.88 µM; in data set [6], 4.17 µM; in data set [7] it was 6.83 µM.
Consider `O=C1c2cccc3cccc(c23)C(=O)N1CCCNCCCCCCNCCCN1C(=O)c2cccc3cccc(c23)C1=O`, for which the Tm in data set [1] amounted to 91.9 °C. Further, in data set [2], the C50 is 1.5 µM. For the same molecule, the IC50 in [4] was 7.22 µM; in data set [5], 4.54 µM; in [6], 0.84 µM; in data set [7], 0.83 µM.
As to `Br.O=C1c2cccc3cccc(c23)C(=O)N1CCCNCCOCCOCCNCCCN1C(=O)c2cccc3cccc(c23)C1=O`, the Tm in data set [1] stood at 87.9 °C. The C50 in data set [2] was 1.9 µM. The IC50 in [4] was 12.4 µM; in data set [5], 6.15 µM; in [6], 6.1 µM; in data set [7], 2.27 µM; in data set [8], 76.1 µM; in data set [9], 26.9 µM. Besides, the selectivity ratio in [10] is 0.4. The Drug uptake result in data set [11] was “Active”.
`COc1cccc2c1C(=O)c1c(O)c3c(c(O)c1C2=O)C[C@@](O)(C(=O)CO)C[C@@H]3O[C@H]1C[C@H](N)[C@H](O)[C@H](C)O1` [DOXORUBICIN]: the Tm in data set [1] turned out to be 86.4 °C. The IC50 in [4] is 14.3 µM; in data set [5] it was 3.61 µM; in data set [6] it was 0.75 µM; in data set [7], 0.18 µM.
`O=C1c2ccccc2C(=O)N1CCCNCCCCCCCCCCNCCCN1C(=O)c2ccccc2C1=O`: the Tm in [1] was determined as 72 °C. In addition, the C50 in [2] was above 10 µM. The IC50 in data set [4], in data set [5], in [6] and in data set [7] was above 40 µM throughout.
